Measured values taken from patent publication US20250296963A1, “PEPTIDE HAVING ANTIMICROBIAL ACTIVITY” (priority 2022, published 2025).
Values after ≈ are worked out from the molar mass of the structure shown.

What was measured:
Type in all cases: cell-based
C. albicans = assay: Peptide stability in bodily fluids (sheep blood, urine), MIC against C. albicans; conditions: Candida albicans, read-out: Minimal inhibitory concentration
Experimental: In vitro experiments were conducted to test the behavior of the peptides as disclosed herein in blood, against C. albicans. C. albicans isolates from human blood were used (DSMZ 6569). The peptide according to the SEQ ID N° 1 was adjusted to a concentration of 1 mg/ml and mixed with sheep blood in equal parts. This mixture was incubated overnight at 30° C. To remove solid parts of the blood, the mixture was centrifuged and the obtained plasma supernatant was used for MICs.
In vitro experiments were conducted to test the behavior of the peptides as disclosed herein in urine, against C. albicans. The peptide according to the SEQ ID N° 1 was adjusted to a concentration of 1 mg/ml and mixed with synthetic urine or human urine in equal parts. These mixtures were incubated overnight at 30° C. To remove solid parts of the urine, the mixture was centrifuged and the obtained supernatant was used for MICs.

Ceratosystis paradoxa = assay: organism not typed; conditions: Ceratosystis paradoxa DSMZ 63054, PDA, 18° C., overnight; read-out: Minimal inhibitory concentration
Experimental: (§1) The antimicrobial potential of the peptides described herein was compared with the activity of two other AMPs, TcAMP1 and TcAMP2 as discussed in WO1998027805, and antibiotics or fungicides. Comparative MIC assays were carried out against several bacterial and fungal species (Table 1).
(§2) Peptides according to SEQ ID N° 1, SEQ ID N° 2, SEQ ID N° 4, SEQ ID N° 6, and SEQ ID N° 7 were serially diluted in order to create a concentration sequence ranging from 0.39 μg/ml to […].
(§3) Pantoea, Staphylococcus, and Listeria were cultured in Trypticase Soy Broth (TSY) medium consisting of 1.7% casein peptone, 0.3% soy peptone, 0.25% glucose, 0.5% NaCl, 0.25% K2HPO4 and optionally 1.5% agar. Candida cells were cultured in Yeast Extract Peptone Dextrose (YPD) broth medium consisting of 1% yeast extract, 2% peptone, 2% glucose, and optionally 2% agar. Ceratocystis, Botrytis, Leptosphaeria, Mycosphaerella, Sclerotinia, and Verticillium were cultured in Potato Dextrose Agar (PDA) medium consisting of 2.4% Difco pre-mix broth and optionally 1.5% agar.
(§4) For the MIC assay bacteria and fungi were grown on agar plates with their respective media. Pre-cultures were prepared by inoculating either single bacterial colonies or small pieces of fungi in 5 ml of the respective liquid medium. The optical density (OD) at 600 nm was measured after one to five days and adjusted to an OD600 of 1. This cell suspension was used to prepare 1:500 dilutions, corresponding to approximately 2×10^6 microbial cells per ml.
(§5) To evaluate MICs, 96-well plates were prepared with the test antimicrobial peptides. Each well contained 100 μl microbial cell culture, 90 μl culture medium, and 10 μl peptide or control at the corresponding dilution. The plates were incubated overnight (ON) at the optimal growth temperature for each tested organism (Table 1). Results were visually evaluated and MICs determined based on growth or no-growth.
(§6) MIC assays were conducted in at least two independent replicates and with different peptide starting concentrations.

Verticillium dahliae = assay: microbe, parasite or virus in culture; conditions: Verticillium dahliae SF 76, PDA, 28° C., overnight; read-out: Minimal inhibitory concentration
Experimental: as §1, §2, §3, §4, §5, §6

Botrytis cinerea = assay: microbe, parasite or virus in culture; conditions: DSMZ877; Botrytis cinerea DSMZ 877, PDA, 24° C., overnight; read-out: Minimal inhibitory concentration
Experimental: as §1, §2, §3, §4, §5, §6

Leptosphaeria maculans = assay: microbe, parasite or virus in culture; conditions: Plenodomus lingam; Leptosphaeria maculans SF 70, PDA, 18° C., overnight; read-out: Minimal inhibitory concentration
Experimental: as §1, §2, §3, §4, §5, §6

Sclerotinia sclerotiorum = assay: microbe, parasite or virus in culture; conditions: Sclerotinia sclerotiorum SF 79, PDA, 18° C., overnight; read-out: Minimal inhibitory concentration
Experimental: as §1, §2, §3, §4, §5, §6

Candida albicans = assay: microbe, parasite or virus in culture; conditions: DSM1386; Candida albicans DSM 1386, YPD, 30° C., overnight; read-out: Minimal inhibitory concentration
Experimental: as §1, §2, §3, §4, §5, §6

Mycosphaerella pinodes = assay: microbe, parasite or virus in culture; conditions: Didymella pinodes, DSMZ62763; Mycosphaerella pinodes DSMZ 62763, PDA, 30° C., overnight; read-out: Minimal inhibitory concentration
Experimental: as §1, §2, §3, §4, §5, §6

[1] = tested on: Staphylococcus aureus MRSA; assay: microbe, parasite or virus in culture; conditions: DSM 11729 / MRSA; Staphylococcus aureus MRSA DSM 11729, TSY, 37° C., overnight; read-out: Minimal inhibitory concentration
Experimental: as §1, §2, §3, §4, §5, §6

Listeria monocytogenes [2] = assay: microbe, parasite or virus in culture; conditions: DSM102976; Listeria monocytogenes DSM 102976, TSY, 37° C., overnight; read-out: Minimal inhibitory concentration
Experimental: as §1, §2, §3, §4, §5, §6

Listeria monocytogenes [3] = assay: Cow milk assay, MIC against Listeria monocytogenes; conditions: control, milk-free (and reference drug), read-out: Minimal inhibitory concentration
Experimental: In vitro experiments were conducted to test the behavior of the peptides as disclosed herein in 3.5% fat cow milk, against Listeria monocytogenes. The peptide according to the SEQ ID N° 1 was adjusted to a concentration of 1 mg/ml and mixed with cow milk in equal parts. This mixture was incubated overnight at 37° C. To remove solid parts of the milk, the mixture was centrifuged and the obtained supernatant was used for MICs.

## CC[C@H](C)C[C@H](C)CCCCCCCCC(=O)N[C@H]1C[C@@H](O)[C@@H](NCCN)NC(=O)[C@@H]2[C@@H](O)CCN2C(=O)[C@H]([C@H](O)CCN)NC(=O)[C@H]([C@H](O)[C@@H](O)c2ccc(O)cc2)NC(=O)[C@@H]2C[C@@H](O)CN2C(=O)[C@H]([C@@H](C)O)NC1=O [Caspofungin, caspofungin]
C. albicans
  MIC: 0.5 µg/mL (≈ 0.457 µM)

## Clc1ccccc1C(c1ccccc1)(c1ccccc1)n1ccnc1 [Clotrimazole]
Ceratosystis paradoxa
  MIC: 0.4 µg/mL (≈ 1.16 µM)
Verticillium dahliae
  MIC: 1.56 µg/mL (≈ 4.52 µM)
Botrytis cinerea
  MIC: 6.25 µg/mL (≈ 18.1 µM)
Leptosphaeria maculans
  MIC: 0.4 µg/mL (≈ 1.16 µM)
Sclerotinia sclerotiorum
  MIC: 25 µg/mL (≈ 72.5 µM)
Candida albicans
  MIC: 3.1 µg/mL (≈ 8.99 µM)
Mycosphaerella pinodes
  MIC: 3.1 µg/mL (≈ 8.99 µM)

## [H]/N=C(/N)N[C@H]1[C@H](O)[C@@H](O)[C@H](O[C@@H]2O[C@@H](C)[C@](O)(C=O)[C@H]2O[C@@H]2O[C@@H](CO)[C@H](O)[C@@H](O)[C@@H]2NC)[C@@H](N/C(N)=N\[H])[C@@H]1O [Streptomycin]
[1]
  MIC: > 125 µg/mL
Listeria monocytogenes [2]
  MIC: 7.8 µg/mL (≈ 13.4 µM)

## CN(C)[C@@H]1C(O)=C(C(N)=O)C(=O)[C@@]2(O)C(O)=C3C(=O)c4c(O)cccc4[C@@](C)(O)[C@H]3C[C@@H]12 [Tetracycline, tetracycline]
Listeria monocytogenes [3]
  MIC: 1.6 µg/mL (≈ 3.6 µM)
